Key:
[1] = system: anesthetized rats; test: Mean arterial pressure (MAP) and heart rate (HR) in anesthetized rats; type: in vivo, rat (Sprague-Dawley)
Description: To determine blood pressure and heart rate, Sprague-Dawley rats (250-400 g) were anesthetized with ketolar and diazepam. The right carotid artery was catheterized for constant blood pressure and heart rate measurement by means of a pressure transducer connected to a PowerLab data acquisition system (ADInstruments). The left external jugular vein was catheterized for saline or drug infusion. 3 mg/kg nebivolol (n=6) or vehicle (50% glycofurol; n=4) was administered intravenously in anesthetized rats and MAP and HR were measured. […] The effect of nebivolol in combination with the type 5 phosphodiesterase (PDE-5) inhibitor sildenafil on hypotension and heart rate was studied in rats using the methods described above.

[2] = system: cGMP in rat plasma; test: Plasma cGMP content by ELISA; type: in vivo, rat (Sprague-Dawley)
Description: To determine the plasma cGMP content, Sprague-Dawley rats were anesthetized with urethane (1.25 g/kg). The right carotid artery was catheterized for constant blood pressure and heart rate measurement by means of a pressure transducer connected to a PowerLab data acquisition system (ADInstruments). The left external jugular vein was catheterized for saline or drug infusion. After administering the respective treatments, rat plasma samples were collected, immediately frozen and stored at −80° C. until extraction for cyclic nucleotide assay. cGMP was determined by ELISA using a kit from Cayman Chemical Co. Plasmatic cGMP levels were determined 10 minutes after nebivolol administration.

[3] = system: human penile resistance arteries (HPRA); test: Relaxation of human penile resistance arteries contracted with U46619 (myograph); type: cell-based; set-up: effect on endothelium-dependent relaxation of HPRA caused by acetylcholine / effect on sildenafil-mediated relaxation of HPRA: unit of the concentration uncertain; settings: for effect on endothelium-dependent relaxation of HPRA caused by acetylcholine: metoprolol (1 (unit uncertain)), nebivolol (0.3 (unit uncertain))
Description: Specimens of human corpus cavernosum were obtained from organ donors and from impotent men at the time of penile prosthesis implantation. Tissues were placed in ice-cold M-400 solution (pH 7.4; 400 mOsm/kg, composition in w/v: 4.19% manitol, 0.2% KH2PO4, 0.97% K2HPO4.3H2O, 0.11% KCl and 0.08% NaHCO3) at the time of removal and transported to the laboratory for utilization within 16 h.
To determine the resistance of penile small arteries, helicine arteries (lumen diameter 150-400 μm) which are the terminal branches of deep penile arteries, were dissected by carefully removing the adhering trabecular tissue, and arterial ring segments (2 mm long) were subsequently mounted on two 40 μm wires on microvascular double Halpern-Mulvany myographs (J.P. Trading, Aarhus, Denmark) for isometric tension recordings. The chambers were filled with PSS continuously bubbled with 95% O2/5% CO2 mixture to maintain a pH of 7.4. […]

[4] = system: diabetic rats; test: Glycemia, arterial pressure and heart rate in STZ-diabetic rats after 10 days s.c. treatment; type: in vivo, rat (Sprague-Dawley); settings: 3 or 10 mg/kg/day s.c. for 10 days
Description: Male Sprague-Dawley rats were used as a model for this study. Diabetes was induced by a single injection of streptozotocin (STZ, 60 mg/kg; i.p.) dissolved in 0.1 M citric acid/trisodic citrate buffer (pH 4-4.5) and was assessed by glycemia determination 72 h after induction. Animals were kept, with free access to food and water, for 8 weeks before experimental assays. Eight weeks after induction of diabetes, rats show reduced erectile responses (Angulo et al., Naunyn-Schmiedeberg's Arch Pharmacol, 358(5), 529-37, 1998; Angulo et al., J. Sex Med., 2, 341-346, 2005). Blood glucose concentration was determined each week and just before the experiment. Insulin levels were not determined. […] After this period of treatment, the diabetic rats were anesthetized and ICP responses to electrical stimulation were evaluated. After an equilibration period, the PDE5 inhibitor sildenafil (0.3 mg/kg) or the vehicle (25% glycofurol) was intravenously administered. Forty five minutes later, ICP responses were again determined

[5] = system: cGMP in rat plasma; test: Plasma cGMP in STZ-diabetic rats; type: in vivo, rat (Sprague-Dawley)
Description: Male Sprague-Dawley rats were used as a model for this study. Diabetes was induced by a single injection of streptozotocin (STZ, 60 mg/kg; i.p.) dissolved in 0.1 M citric acid/trisodic citrate buffer (pH 4-4.5) and was assessed by glycemia determination 72 h after induction. Animals were kept, with free access to food and water, for 8 weeks before experimental assays. Eight weeks after induction of diabetes, rats show altered in vivo vascular function (Angulo et al., Naunyn-Schmiedeberg's Arch Pharmacol, 358(5), 529-37, 1998) and reduced erectile responses (Angulo et al., J. Sex Med., 2, 341-346, 2005). Blood glucose concentration was determined each week and just before the experiment. Insulin levels were not determined. Plasma samples were collected, immediately frozen and stored at −80° C. until extraction for cyclic nucleotide assay. Samples were then precipitated in ethanol, centrifuged and the supernatant was dried under a nitrogen stream. Penile tissues were rapidly immersed in liquid nitrogen and were stored at −80° C. until extraction for cyclic nucleotide assay. […] After 10 days treatment, diabetic rats were anesthetized and erectile responses to cavernosal nerve electrical stimulation (CNES) were determined. After an equilibration period, the PDE-5 inhibitor sildenafil (0.3 mg/kg) or the vehicle (25% glycofurol) was intravenously administered. Forty five minutes later, erectile responses to CNES were again evaluated, and 5 min after CNES application, blood was collected for obtaining plasma and serum, and the penis was excised. Serum samples were immediately frozen until determinations of NOx and TBARS. Plasma and penile tissues were immediately frozen until determinations of cGMP.

[6] = system: thiobarbituric acid reactive substances (TBARS) in rat serum; test: Serum TBARS in STZ-diabetic rats; type: in vivo, rat (Sprague-Dawley); settings: for effect on TBARS levels in diabetic rats: groups with and without sildenafil pooled
Description: Male Sprague-Dawley rats were used as a model for this study. Diabetes was induced by a single injection of streptozotocin (STZ, 60 mg/kg; i.p.) dissolved in 0.1 M citric acid/trisodic citrate buffer (pH 4-4.5) and was assessed by glycemia determination 72 h after induction. Animals were kept, with free access to food and water, for 8 weeks before experimental assays. Eight weeks after induction of diabetes, rats show altered in vivo vascular function (Angulo et al., Naunyn-Schmiedeberg's Arch Pharmacol, 358(5), 529-37, 1998) and reduced erectile responses (Angulo et al., J. Sex Med., 2, 341-346, 2005). Blood glucose concentration was determined each week and just before the experiment. Insulin levels were not determined. Blood was collected from the right ventricle, clotted in gel and centrifuged at 1500×g to obtain serum. Thiobarbituric acid reactive substances (TBARS) were determined by reacting thiobarbituric acid with serum samples at 70° C. for 30 min and reading absorbance at 532 nm. Serum concentrations of TBARS were determined by using malondialdehyde (MDA) as a standard. […] Results were expressed as ng/ml of MDA equivalents. […] After 10 days treatment, diabetic rats were anesthetized and erectile responses to cavernosal nerve electrical stimulation (CNES) were determined. After an equilibration period, the PDE-5 inhibitor sildenafil (0.3 mg/kg) or the vehicle (25% glycofurol) was intravenously administered. Forty five minutes later, erectile responses to CNES were again evaluated, and 5 min after CNES application, blood was collected for obtaining plasma and serum, and the penis was excised. Serum samples were immediately frozen until determinations of NOx and TBARS. Plasma and penile tissues were immediately frozen until determinations of cGMP.

[7] = 3 mg/kg i.v., vs vehicle (50% glycofurol)
[8] = nebivolol 1 mg/kg i.v., pre-treatment sildenafil 0.3 mg/kg i.v.
[9] = nebivolol 3 mg/kg i.v., L-NAME 3 mg/kg, ODQ 1 mg/kg, propranolol 1 mg/kg, sildenafil 0.3 mg/kg i.v.

OC(CNCC(O)C1CCc2cc(F)ccc2O1)C1CCc2cc(F)ccc2O1 (racemic) [nebivolol, α,α′-iminobis(methylene)bis[6-fluoro-2-chromanmethanol]]
effect on blood pressure ([1]; 1 mg/kg i.v.): hypotensive and bradycardic effects of moderate intensity
effect on heart rate ([1]; 1 mg/kg i.v.): hypotensive and bradycardic effects of moderate intensity
effect on heart rate (HR) [1, 7]: significant reduction of heart rate
effect on mean arterial pressure (MAP) [1, 7]: significant hypotensive effect
increase in plasma cGMP levels ([2]; 3 mg/kg i.v., 10 minutes after administration, percentage of cGMP concentration before administration (FIG. 15)): 177±38%
interaction with sildenafil on plasma cGMP levels ([2]; combination of sildenafil and nebivolol): synergistically increases plasma cGMP levels
plasma cGMP levels after combined administration with sildenafil ([2]; nebivolol 3 mg/kg + sildenafil 0.3 mg/kg i.v.): marked increase of cGMP levels
plasma cGMP levels after combining sildenafil with nebivolol, dose-dependent ([2]; nebivolol 1 and 3 mg/kg + sildenafil 0.3 mg/kg i.v.): significant further increase
EC50 ([3]; Homo sapiens, nebivolol 1 nM to 10 μM, read-out: EC50, endothelium-dependent vasodilation of HPRA): 24.4 nM
Emax ([3]; Homo sapiens, nebivolol 1 nM to 10 μM, read-out: Emax, endothelium-dependent vasodilation of HPRA): 59.1 ± 10.3%
relaxation of HPRA compared with metoprolol or atenolol ([3]; U46619 30-100 nM): significantly more potent than those caused by metoprolol or atenolol
relaxation of HPRA by cumulative addition ([3]; U46619 30-100 nM, 1 nM to 0.1 mM): marked relaxations
effect on endothelium-dependent relaxation of HPRA caused by acetylcholine ([3]; atenolol (1 (unit uncertain))): not affected
effect on sildenafil-mediated relaxation of HPRA ([3]; nebivolol (1 (unit uncertain)), atenolol (1 (unit uncertain))): able to enhance
effect on arterial pressure in diabetic rats [4]: Neither diabetes nor either drug treatment (nebivolol or atenolol) significantly affected
effect on heart rate in diabetic rats [4]: further reduced
effect on plasma cGMP content in diabetic rats ([5]; 3 and 10 mg/kg/day for 10 days): did not result in significant modifications
influence on the effects of sildenafil on plasma cGMP content in diabetic rats ([5]; 3 and 10 mg/kg/day for 10 days, sildenafil 0.3 mg/kg i.v.): did not influence
effect on TBARS levels in diabetic rats ([6]; 10 mg/kg/day for 10 days): significant reduction
effect on TBARS levels in diabetic rats ([6]; administered for 10 days): trend to reduce

CC(C)NCC(O)COc1ccc(CC(N)=O)cc1 (stereo not drawn) [atenolol]
effect on endothelium-dependent relaxation of HPRA caused by acetylcholine ([3]; atenolol (1 (unit uncertain))): not affected
effect on arterial pressure in diabetic rats [4]: Neither diabetes nor either drug treatment (nebivolol or atenolol) significantly affected
effect on heart rate in diabetic rats [4]: further reduced

CCCc1nn(C)c2c(=O)[nH]c(-c3cc(S(=O)(=O)N4CCN(C)CC4)ccc3OCC)nc12 [sildenafil]
effect on blood pressure drop caused by nebivolol [1, 8]: significantly enhanced
effect on reduction of heart rate caused by nebivolol [1, 8]: not modified
effect on heart rate reduction caused by nebivolol [1, 9]: did not significantly alter
effect on hypotension caused by nebivolol [1, 9]: did not significantly alter
effect on plasma cGMP levels ([2]; i.v.: atenolol 3 mg/kg, sildenafil 0.3 mg/kg, sodium nitroprusside 0.1 mg/kg): augmented cGMP up to similar levels than nebivolol
effect on plasma cGMP levels in diabetic and non diabetic rats ([5]; sildenafil 0.3 mg/kg i.v.): marked increase
influence on serum TBARS levels ([6]; sildenafil 0.3 mg/kg i.v.): did not significantly influence

Reference: patent publication US20090181975A1, “NEBIVOLOL IN THE TREATMENT OF SEXUAL DYSFUNCTION” (FOREST LABORATORIES HOLDINGS LIMITED, priority 2008, published 2009)
